Measurements: US20040039019A1, “Selected anthranilaminde pyridinamides and their use as pharmaceutical agents” (Schering AG, priority 2002, published 2004)

How the values were obtained:
[1] = biological target: T1, human Cytochrome P 450 2C9 (Homo sapiens, UniProt P11712); assay: Cytochrome P450 inhibition, isoenzyme 2C9; assay type: in vitro ADME; settings: baculovirus/insect cell-expressed human isoenzyme 2C9; read-out: Inhibition of the Cytochrome P450 Isoenzymes (IC50) 2C9
T1 construct: host or cells: baculovirus/insect cells
T1 sequence (P11712 whole entry): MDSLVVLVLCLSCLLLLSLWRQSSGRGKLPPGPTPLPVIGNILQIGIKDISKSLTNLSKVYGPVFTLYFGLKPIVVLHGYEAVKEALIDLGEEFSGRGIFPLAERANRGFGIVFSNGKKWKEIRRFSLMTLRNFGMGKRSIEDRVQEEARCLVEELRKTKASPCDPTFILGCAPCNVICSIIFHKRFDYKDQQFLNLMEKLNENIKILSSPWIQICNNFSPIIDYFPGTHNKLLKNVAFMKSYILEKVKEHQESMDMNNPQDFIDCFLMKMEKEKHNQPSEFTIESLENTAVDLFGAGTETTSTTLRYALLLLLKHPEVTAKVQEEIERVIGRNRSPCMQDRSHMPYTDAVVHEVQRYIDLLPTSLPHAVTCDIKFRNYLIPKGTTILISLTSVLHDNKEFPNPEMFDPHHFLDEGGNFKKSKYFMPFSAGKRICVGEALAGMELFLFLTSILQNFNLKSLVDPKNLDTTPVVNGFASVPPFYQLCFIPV
Experimental: (§1) Cytochrome P450 Inhibition
(§2) The Cytochrome P450 inhibition was performed according to the publication of Crespi et al. (Anal. Biochem., 248, 188-190 (1997)) with use of baculovirus/insect cell-expressed, human Cytochrome P 450 isoenzymes (1A2, 2C9, 2C19, 2D6, 3A4).

[2] = biological target: T2, human Cytochrome P 450 1A2 (Homo sapiens, UniProt P05177); assay: Cytochrome P450 inhibition, isoenzyme 1A2; assay type: in vitro ADME; settings: baculovirus/insect cell-expressed human isoenzyme 1A2; read-out: Inhibition of the Cytochrome P450 Isoenzymes (IC50) 1A2
T2 construct: host or cells: baculovirus/insect cells
T2 sequence (P05177 1-516): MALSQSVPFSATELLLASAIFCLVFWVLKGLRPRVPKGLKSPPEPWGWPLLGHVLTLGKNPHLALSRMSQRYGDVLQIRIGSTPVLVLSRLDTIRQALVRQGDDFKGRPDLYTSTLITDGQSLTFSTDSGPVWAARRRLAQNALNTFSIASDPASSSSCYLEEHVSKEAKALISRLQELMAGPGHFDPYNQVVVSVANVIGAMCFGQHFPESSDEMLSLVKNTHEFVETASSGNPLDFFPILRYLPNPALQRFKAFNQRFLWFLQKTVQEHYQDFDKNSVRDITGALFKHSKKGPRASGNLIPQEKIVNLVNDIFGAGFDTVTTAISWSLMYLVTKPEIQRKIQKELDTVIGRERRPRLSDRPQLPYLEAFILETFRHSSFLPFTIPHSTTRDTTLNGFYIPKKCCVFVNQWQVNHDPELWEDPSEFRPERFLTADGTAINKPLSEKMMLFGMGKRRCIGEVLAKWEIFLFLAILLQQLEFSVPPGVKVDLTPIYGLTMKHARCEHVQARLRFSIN
Experimental: as §1, §2

[3] = biological target: T3, human Cytochrome P 450 2D6 (Homo sapiens, UniProt P10635); assay: Cytochrome P450 inhibition, isoenzyme 2D6; assay type: in vitro ADME; settings: baculovirus/insect cell-expressed human isoenzyme 2D6; read-out: Inhibition of the Cytochrome P450 Isoenzymes (IC50) 2D6
T3 construct: host or cells: baculovirus/insect cells
T3 sequence (P10635 whole entry): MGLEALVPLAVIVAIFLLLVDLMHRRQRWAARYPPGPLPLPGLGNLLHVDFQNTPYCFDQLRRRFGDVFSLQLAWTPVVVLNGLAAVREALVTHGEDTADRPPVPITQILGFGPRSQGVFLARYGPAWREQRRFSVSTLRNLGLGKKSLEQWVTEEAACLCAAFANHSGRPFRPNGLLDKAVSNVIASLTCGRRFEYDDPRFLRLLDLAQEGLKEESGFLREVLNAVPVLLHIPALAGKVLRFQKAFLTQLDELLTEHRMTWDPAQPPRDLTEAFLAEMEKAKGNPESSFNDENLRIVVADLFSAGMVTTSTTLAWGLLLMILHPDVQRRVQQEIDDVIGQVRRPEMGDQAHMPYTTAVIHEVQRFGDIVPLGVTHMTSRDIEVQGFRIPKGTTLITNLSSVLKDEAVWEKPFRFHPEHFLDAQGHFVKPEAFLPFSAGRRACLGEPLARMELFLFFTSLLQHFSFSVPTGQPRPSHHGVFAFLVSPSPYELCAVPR
Experimental: as §1, §2

[4] = biological target: T4, human Cytochrome P 450 2C19 (Homo sapiens, UniProt P33261); assay: Cytochrome P450 inhibition, isoenzyme 2C19; assay type: in vitro ADME; settings: baculovirus/insect cell-expressed human isoenzyme 2C19; read-out: Inhibition of the Cytochrome P450 Isoenzymes (IC50) 2C19
T4 construct: host or cells: baculovirus/insect cells
T4 sequence (P33261 whole entry): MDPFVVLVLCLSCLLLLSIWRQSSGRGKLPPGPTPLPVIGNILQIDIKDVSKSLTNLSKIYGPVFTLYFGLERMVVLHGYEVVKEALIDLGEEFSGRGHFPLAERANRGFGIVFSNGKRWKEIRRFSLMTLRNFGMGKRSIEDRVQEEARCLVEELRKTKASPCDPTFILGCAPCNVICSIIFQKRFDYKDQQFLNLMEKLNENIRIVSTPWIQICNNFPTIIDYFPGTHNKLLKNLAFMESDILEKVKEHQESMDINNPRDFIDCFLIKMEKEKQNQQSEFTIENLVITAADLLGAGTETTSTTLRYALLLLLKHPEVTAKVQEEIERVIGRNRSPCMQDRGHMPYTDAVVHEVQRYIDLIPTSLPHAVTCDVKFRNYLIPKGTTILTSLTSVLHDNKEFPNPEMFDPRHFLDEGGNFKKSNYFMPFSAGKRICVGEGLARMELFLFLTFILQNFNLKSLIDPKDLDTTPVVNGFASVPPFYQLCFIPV
Experimental: as §1, §2

[5] = biological target: T5, human Cytochrome P 450 3A4 (Homo sapiens, UniProt P08684); assay: Cytochrome P450 inhibition, isoenzyme 3A4; assay type: in vitro ADME; settings: baculovirus/insect cell-expressed human isoenzyme 3A4; read-out: Inhibition of the Cytochrome P450 Isoenzymes (IC50) 3A4
T5 construct: host or cells: baculovirus/insect cells
T5 sequence (P08684 whole entry): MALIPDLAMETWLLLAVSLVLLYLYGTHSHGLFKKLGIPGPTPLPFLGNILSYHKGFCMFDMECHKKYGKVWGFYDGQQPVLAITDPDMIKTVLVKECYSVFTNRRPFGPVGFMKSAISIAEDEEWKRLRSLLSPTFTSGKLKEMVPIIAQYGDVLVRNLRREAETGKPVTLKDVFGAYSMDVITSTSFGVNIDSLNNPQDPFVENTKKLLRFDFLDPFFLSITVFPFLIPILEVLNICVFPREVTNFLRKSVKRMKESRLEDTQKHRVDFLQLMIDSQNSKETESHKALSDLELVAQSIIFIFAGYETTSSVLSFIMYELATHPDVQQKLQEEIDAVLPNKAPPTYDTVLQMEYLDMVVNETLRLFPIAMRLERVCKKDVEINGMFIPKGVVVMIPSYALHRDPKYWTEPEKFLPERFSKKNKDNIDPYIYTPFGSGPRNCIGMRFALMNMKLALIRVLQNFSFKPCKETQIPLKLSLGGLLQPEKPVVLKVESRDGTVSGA
Experimental: as §1, §2

VEGFR II (KDR) = VEGFR II (KDR) (Homo sapiens, UniProt P35968); assay: Inhibition of the KDR kinase activity; assay type: biochemical; settings: poly-(Glu4Tyr) substrate, 33P-ATP, 10 minutes at room temperature
Sequence of VEGFR II (KDR) (P35968 20-1356, species assumed): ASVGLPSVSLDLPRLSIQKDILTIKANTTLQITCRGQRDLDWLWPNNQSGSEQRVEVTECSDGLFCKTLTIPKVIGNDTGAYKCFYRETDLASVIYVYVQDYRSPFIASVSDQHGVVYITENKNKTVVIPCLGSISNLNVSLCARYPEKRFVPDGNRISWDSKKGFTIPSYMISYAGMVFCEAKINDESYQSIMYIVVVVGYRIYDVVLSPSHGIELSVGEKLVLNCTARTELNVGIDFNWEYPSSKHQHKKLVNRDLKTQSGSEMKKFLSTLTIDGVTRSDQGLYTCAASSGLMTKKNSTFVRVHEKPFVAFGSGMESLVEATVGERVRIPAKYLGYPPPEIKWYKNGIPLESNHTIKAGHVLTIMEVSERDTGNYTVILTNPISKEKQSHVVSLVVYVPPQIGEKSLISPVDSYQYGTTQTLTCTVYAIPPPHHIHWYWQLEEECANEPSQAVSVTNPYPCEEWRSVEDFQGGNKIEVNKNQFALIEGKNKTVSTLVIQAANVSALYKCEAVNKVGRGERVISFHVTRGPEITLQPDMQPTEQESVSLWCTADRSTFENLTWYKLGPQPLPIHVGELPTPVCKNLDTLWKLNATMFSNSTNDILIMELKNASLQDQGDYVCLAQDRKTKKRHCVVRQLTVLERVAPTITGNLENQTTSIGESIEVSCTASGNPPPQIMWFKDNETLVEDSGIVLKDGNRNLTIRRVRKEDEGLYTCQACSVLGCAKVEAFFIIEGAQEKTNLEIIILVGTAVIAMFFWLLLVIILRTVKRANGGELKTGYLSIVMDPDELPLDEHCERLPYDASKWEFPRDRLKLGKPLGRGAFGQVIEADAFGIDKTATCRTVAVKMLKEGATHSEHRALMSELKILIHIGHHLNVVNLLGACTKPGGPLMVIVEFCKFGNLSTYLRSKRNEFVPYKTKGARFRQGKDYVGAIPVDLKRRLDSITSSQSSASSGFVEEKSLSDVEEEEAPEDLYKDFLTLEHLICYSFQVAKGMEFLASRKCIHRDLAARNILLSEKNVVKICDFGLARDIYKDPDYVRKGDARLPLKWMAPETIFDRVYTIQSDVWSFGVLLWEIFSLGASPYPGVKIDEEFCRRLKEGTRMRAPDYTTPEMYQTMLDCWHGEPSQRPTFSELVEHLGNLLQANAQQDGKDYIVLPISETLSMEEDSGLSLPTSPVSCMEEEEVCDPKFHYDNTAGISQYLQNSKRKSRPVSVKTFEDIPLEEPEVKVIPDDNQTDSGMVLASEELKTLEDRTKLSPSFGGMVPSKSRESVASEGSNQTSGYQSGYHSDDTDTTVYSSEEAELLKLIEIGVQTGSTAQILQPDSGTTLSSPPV
Experimental: Solutions Required for the Tests
Stock solution A: 3 mmol of ATP in water, pH 7.0 (−70° C.)
Stock solution B: g-33P-ATP 1 mCi/100 μl
Stock solution C: poly-(Glu4Tyr) 10 mg/ml in water
Substrate solvent: 10 mmol of DTT, 10 mmol of manganese chloride, 100 mmol of magnesium chloride
Enzyme solution: 120 mmol of tris/HCl, pH 7.5, 10 μM of sodium vanadium oxide
Inhibition of the KDR- and FLT-1 Kinase Activity in the Presence of the Compounds According to the Invention
In a microtiter plate (without protein binding) that tapers to a point, 10 μl of substrate mix (10 μl of volume of ATP stock solution A +25 μCi of g-33P-ATP (about 2.5 μl of stock solution B)+30 μl of poly-(Glu4Tyr) stock solution C+1.21 ml of substrate solvent), 10 μl of inhibitor solution (substances corresponding to the dilutions, 3% DMSO in substrate solvent as a control) and 10 μl of enzyme solution (11.25 μg of enzyme stock solution (KDR or FLT-1 kinase) are added at 4° C. in 1.25 ml of enzyme solution (dilute). It is thoroughly mixed and incubated for 10 minutes at room temperature. Then, 10 μl of stop solution (250 mmol of EDTA, pH 7.0) is added, mixed, and 10 μl of the solution is transferred to a P 81 phosphocellulose filter. Then, it is washed several times in 0.1 M phosphoric acid. The filter paper is dried, coated with Meltilex and measured in a microbeta counter. […]

O=C1Cc2ccc(NC(=O)c3ccccc3NCc3ccc(=O)[nH]c3)cc2N1 [Example 1.0, N-(2-Oxo-2,3-dihydro-1H-indol-6-yl)-2-[(6-oxo-1,6-dihydro-pyridin-3-ylmethyl)-amino]-benzamide]
IC50 [1]: 23 µM
IC50 [2]: > 30 µM
IC50 [3]: > 30 µM
IC50 [4]: > 30 µM
IC50 [5]: > 30 µM
IC50 (VEGFR II (KDR)): 0.05 µM
